Here are results for one compound from patent US20100137327A1, “NOVEL SEM[…] CARBONYLHYDRAZIDE DERIVATIVES USEFUL AS POTASSIUM CHANNEL MODULATORS” (NeuroSearch A/S, priority 2007, published 2010).

Structures are written as SMILES.

The target of the assay is BK channels heterologously expressed in Xenopus laevis oocytes (Homo sapiens, UniProt Q12791). The following applies: 30 μM compound added after stable current level, step from −40 mV (5 s) to +30 mV (1 s), repeated, FIG. 1.
Chain of BK channels heterologously expressed in Xenopus laevis oocytes (Q12791 whole entry): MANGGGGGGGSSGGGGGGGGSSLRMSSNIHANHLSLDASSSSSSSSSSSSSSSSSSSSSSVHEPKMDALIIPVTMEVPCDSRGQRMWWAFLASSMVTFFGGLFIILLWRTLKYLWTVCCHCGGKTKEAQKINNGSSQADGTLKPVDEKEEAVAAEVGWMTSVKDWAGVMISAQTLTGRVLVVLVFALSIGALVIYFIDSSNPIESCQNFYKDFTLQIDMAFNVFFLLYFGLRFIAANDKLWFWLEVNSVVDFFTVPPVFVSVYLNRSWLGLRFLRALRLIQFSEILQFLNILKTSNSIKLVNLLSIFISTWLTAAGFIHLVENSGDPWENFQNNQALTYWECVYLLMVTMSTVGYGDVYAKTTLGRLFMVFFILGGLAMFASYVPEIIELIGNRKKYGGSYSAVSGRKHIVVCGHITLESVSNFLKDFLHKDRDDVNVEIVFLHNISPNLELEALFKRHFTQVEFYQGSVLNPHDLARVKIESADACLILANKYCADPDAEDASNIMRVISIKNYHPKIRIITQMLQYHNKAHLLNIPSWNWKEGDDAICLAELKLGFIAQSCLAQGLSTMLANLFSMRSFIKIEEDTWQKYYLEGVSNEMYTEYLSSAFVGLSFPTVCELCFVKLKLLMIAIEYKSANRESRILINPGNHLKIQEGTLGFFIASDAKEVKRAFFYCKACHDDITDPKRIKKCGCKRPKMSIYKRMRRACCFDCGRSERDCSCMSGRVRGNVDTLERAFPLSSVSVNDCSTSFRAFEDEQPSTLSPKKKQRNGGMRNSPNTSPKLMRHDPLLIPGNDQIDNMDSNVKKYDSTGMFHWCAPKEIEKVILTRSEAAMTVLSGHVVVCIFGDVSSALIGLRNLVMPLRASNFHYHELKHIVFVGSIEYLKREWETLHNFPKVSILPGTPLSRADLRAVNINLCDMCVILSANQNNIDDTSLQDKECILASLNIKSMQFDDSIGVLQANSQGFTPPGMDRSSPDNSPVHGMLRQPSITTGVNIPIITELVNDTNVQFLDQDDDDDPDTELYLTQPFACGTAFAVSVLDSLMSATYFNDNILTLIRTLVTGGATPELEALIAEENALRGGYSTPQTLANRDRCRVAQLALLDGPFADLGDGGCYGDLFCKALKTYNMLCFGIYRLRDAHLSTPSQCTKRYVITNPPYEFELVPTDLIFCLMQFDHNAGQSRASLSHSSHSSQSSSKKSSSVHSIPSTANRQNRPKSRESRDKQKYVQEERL

Protocol: The electrical current through the BK channel is measured conventional two-electrode voltage clamp. BK current is activated by repeated step protocols. In brief, this protocol goes from a resting membrane potential of −40 mV lasting for 5 s to a depolarised step to +30 mV lasting for 1 s. The protocol was repeated continuously.
Having reached a stable current level, Compound A (30 μM), was added.

On to `O=C(NNc1ccc(-c2ccc(C(F)(F)F)cc2)cc1-c1nnn[nH]1)c1cc(C(F)(F)F)cc(C(F)(F)F)c1` [Compound A, 3,5-Bis-trifluoromethyl-benzoic acid N40-[3-(1H-tetrazol-5-yl)-4′-trifluoromethyl-biphenyl-4-yl]-hydrazide], for which the “current activated by depolarisation (BK channel opening activity)” value is “marked increase”.
